According to patent EP2363475A1, “SCREENING METHOD, COMPOSITION CONTAINING SUBSTANCE SELECTED BY THE SCREENING METHOD, AND BINDING SUBSTANCE” (Redox Bioscience Inc., priority 2008, dated 2010):

Biological target: T1, bond between rTRX and rMIF (Homo sapiens, UniProt P10599)
T1 construct: His tag; made in house; host or cells: Escherichia coli
T1 sequence (P10599 1-105): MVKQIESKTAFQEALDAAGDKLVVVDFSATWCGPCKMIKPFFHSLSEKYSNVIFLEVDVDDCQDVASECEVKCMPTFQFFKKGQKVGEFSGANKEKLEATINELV
Test: Screening by molecular interaction analysis (Biacore, SPR) for test substances that strengthen the bond between TRX and MIF
Assay type: binding
Settings: test substance 500 µM mixed with rTRX 5 µM (Prostaglandin 12 also at 5 µM); FIGS. 7 to 11
Protocol: For several test substances, it was confirmed with a molecular interaction analysis whether they strengthened the bond between TRX and MIF or not.
rTRX; (same as the rTRX of Example 5) rMIF; (same as the rMIF of Example 5) BIAcore2000; (CM5 sensor chip)
N-acetylglucosamine Nitrosoglutathione Prostaglandin 12
rMIF was immobilized in a CM5 sensor chip as a ligand. The ligand was adjusted to have the rMIF concentration of less or equal to 200 nM by using running buffer, 10 mM HEPES (pH7.4), 150 mM NaCl, 3 mM EDTA and 0.005% Tween 20.
Then, N-acetylglucosamine, Nitrosoglutathione and Prostaglandin 12 were mixed with rTRX, respectively, to form three types of analytes.
In each analyte, the concentration of rTRX was 5 µM and the concentration of the test substance was 500 µM. For Prostaglandin 12, the analyte having its concentration of 5 µM was also analyzed.

For Prostaglandin 12, the “effect on the bond between rTRX and rMIF” value was “remarkably strengthen the bond between rTRX and rMIF”.
